We go through two compounds from patent US9777015B2, “Useful thiophene derivatives in the treatment of diabetes” (METABRAIN RESEARCH, priority 2012, dated 2017).

Each structure is given as a SMILES string.

Experiment [1] deals with GK (Goto-Kakisaki) rats. The experiment is described as follows: Antidiabetic activity in GK (Goto-Kakisaki) rats, intravenous glucose tolerance test (IVGTT). The class given is in vivo, rat. Particulars: single oral dose 20 mg/kg. As to the method: The antidiabetic activity of compound 10 was evaluated in GK rats, a non-obese model of diabetes of type II. This model was obtained by cross-breeding of Wistar rats selected on the basis of a slight intolerance to glucose. These rats have the majority of dysfunctions observed in diabetes of type II in humans: hyperglycemia, intolerance to glucose, insulin-resistance, and deteriorated insulin response to glucose. These animals were bred at Metabrain and were housed in an animal housing facility with a regulated temperature (22±2° C.) under constant humidity (50±20%) with a day/night cycle of 12 h (light from 7 h-19 h) and have access ad libitum to food and drink. The housing and experimentation conditions comply with the European directives relating to health and ethical treatment of laboratory animals (ETS123). In this study, the rats used are female 16-week old GK rats having fasted for 2 hours before beginning the study (postabsorptive condition). A glucose tolerance test is carried out via an intravenous route (IVGTT) on 2 groups of rats: One group treated with the compound 10 orally at the single dose of 20 mg/kg and a control group treated orally with the carrier. The tolerance test is carried out 1 h after oral administration of compound 10 on the animals anesthetized beforehand with pentobarbital (45 mg/kg via an intraperitoneal route). A blood sample was taken at TO just before administration of the glucose load (0.5 g/kg via an intravenous route) and at x T5, T10, T15, T20 and T30 min after the glucose load. The blood samples are centrifuged in order to collect the plasma for determining glycemia. The results shown above are expressed • as a percentage of the decrease of glycemia at TO for the group treated with the compound 10, compared with the control group. • as a percentage of the decrease of AUC (area under the curve of glycemia versus time) for the group treated with the compound 10 as compared with the control group.

In experiment [2] the test system is INS-1 cells. The experiment is described as follows: Stimulation test of insulin secretion by INS-1 cells. The experiment is classed as cell-based. Particulars: Rattus norvegicus, 1 h incubation, 3.5 mM glucose; for activity at 50 µM: INS1, compound at 50 μM, read-out: INS-1 % of ctrl @ 50 μM. As to the method: The different compounds were tested on an INS-1 beta-pancreatic line in order to evaluate their capability of potentializing the insulin secretion in response to glucose. Very briefly, the cells are cultivated in a culture medium, RPMI 1640 with 10 mM glucose containing 1 mM of sodium pyruvate, 50 μM of 2-mercaptoethanol, 2 mM of glutamine, 10 mM of HEPES, 100 IU/mL of penicillin, 100 μg/mL of streptomycin and 10% of inactivated fetal calf serum, as described by Asfari et al.. For the insulin secretion test, the INS-1 cells are sown and cultivated in 96-well plates. After 3 days of cultivation at 37° C. in a humid atmosphere (95% air/5% CO2), the medium is removed and the cells are incubated for 16 h in a medium containing 5 mM of glucose and 1% of inactivated fetal calf serum. On the day of the test, the cells are washed with a Krebs buffer (pH 7.4) containing 0.1% of bovine albumin and then pre-incubated for 30 min at 37° C. in this same buffer containing 2.8 mM of glucose. Finally, the cells are again washed with Krebs buffer and then incubated for 1 h in the buffer of the secretion test (Krebs, pH 7.4 containing 0.1% of bovine albumin and 3.5 mM of glucose and molecules to be evaluated). At the end of the test, the cell supernatant is recovered in order to measure therein the secreted insulin, by means of an ELISA kit using a rat anti-insulin antibody (ELISA Alpco Cat no. 80-INSRTH-E10). Each condition is tested in triplicate. The 3.5 mM glucose, the 10^−7M GLP-1 and the Forskoline 10^−7/IBMX 10^−5M mixtures are used as positive controls of the test. A compound stimulates the secretion of insulin if this factor is greater than or equal to 130% of the control for a given glucose dose.

Experiment [3] relates to hepatocytes isolated from Wistar rat liver. Description: Test of inhibition of hepatic production of glucose (isolated hepatocytes, 3 h or 20 h incubation). The class given is cell-based. The following applies: Rattus norvegicus, Hepatocyte, 3 h, hepatic glucose production, rat hepatocytes, 3 h incubation; for activity at 50 µM: compound at 50 μM, read-out: HGP % of ctrl @ 50 μM; for activity at 100 µM: compound at 100 μM, read-out: HGP % of ctrl @ 100 μM. A digest of the protocol: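 Hepatocytes from 24 h-fasted Wistar rats were cultured overnight in glucose-free RPMI with hydrocortisone (7.10^−5M). Glucose production was run for 3 h in Krebs with lactate/pyruvate plus compounds (0.1% DMSO final), or after an added 20 h pretreatment during the RPMI culture. Supernatant glucose was measured by glucose oxidase and expressed per mg protein (Lowry).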

In experiment [4] the test system is isolated perfused pancreases of N0STZ diabetic rats. Description: Insulin secretion in response to glucose at isolated perfused pancreases of N0STZ diabetic rats. Further details: species or system rat. As to the method:
The pancreas was taken on rats made to be diabetic by injection of Streptozotocin on the day of birth and anesthetized with Pentobarbital (Nembutal©: 45 mg/kg; intraperitoneal route). These rats have a specific deficiency of the insulin response to glucose, as observed in humans with diabetes of type II. The isolation and the perfusion of the pancreas were achieved according to a modification of the procedure described by Sussman et al.. The effect of the compounds or reference substances is tested for 35 minutes (from t=20 min to t=55 min) in Krebs buffer in the absence (GO) or in the presence of glucose at 2.8 mM (G2.8 mM), and then 20 minutes (from t=55 min to t=75 min) in the presence of glucose 16.5 mM. The concentration of insulin secreted into the medium is measured by an Elisa assay (ELISA Alpco Cat no. 80-INSRTH-E10). The results are expressed as an average+/−SEM (Standard Error of the Mean) of several experiments.

In the case of `CCOC(=O)Cc1cc(C(=O)c2ccco2)sc1-c1ccc(Cl)cc1` [compound 10, ethyl 2-(2-(4-chlorophenyl)-5-(furan-2-carbonyl)thiophen-3-yl)acetate], the intolerance to glucose result in experiment [1] (GK rats, IVGTT 1 h after administration) is “capable of reducing”. For the same compound, in experiment [1] (GK rats, glycemia at T0), the basal hyperglycemia entry is “capable of reducing”. Further, the “AUC, % of activity” value in experiment [1] (female GK rats, IVGTT, vs control group treated with carrier) is −35%. Moreover, the “Glycemia at T0, % of activity” value in experiment [1] (female GK rats, vs control group treated with carrier) is given as −11%. Moreover, in experiment [2] (INS1, compound at 10 μM, read-out: INS-1 % of ctrl @ 10 μM), the activity at 10 µM came to 144%. Besides, in experiment [2], the activity at 50 µM stood at 210%. Besides, in experiment [3], the activity at 50 µM stood at 64% and the activity at 100 µM amounted to 39%. The “restoring insulin secretion in response to glucose” value in experiment [4] (isolated perfused pancreases of N0STZ diabetic rats) is “strongest secretions”.
Consider `CCOC(=O)Cc1cc(C(=O)c2ccc(OC)cc2)sc1-c1ccc(Cl)c(Cl)c1` [compound 157, ethyl 2-[2-(3,4-dichlorophenyl)-5-(4-methoxybenzoyl)-3-thienyl]acetate], for which the activity at 50 µM in experiment [2] was found to be 140%; in experiment [3], 97%. Moreover, the activity at 100 µM in experiment [3] turned out to be 74%. For the same compound, in experiment [4] (tested concentration 10 μM, glucose 16.5 mM, average +/- SEM), the “Insulin secretion peak at G16.5 mM, Tested product” value was 989 ± 86 μU/min.
